# From ChEMBL document CHEMBL2176889, “Design, synthesis, and pharmacological evaluation of monocyclic pyrimidinones as novel inhibitors of PDE5” (J Med Chem, 2012)
# Activity calls are given as the source filed them. No cut-off for these calls is given here.
# Key:
# [1] = biological target: High affinity 3',5'-cyclic-AMP phosphodiesterase 7A (Homo sapiens, UniProt Q13946)
# [2] = Inhibition of dog adrenal gland PDE2 by [3H]cGMP based tritium scintillation proximity assay; type: tissue-based, Canis lupus familiaris
# Rattus norvegicus = test: Increase in intracavernous pressure/blood pressure in Sprague-Dawley rat model of erection at 10 mg/kg, po measured 30 mins post dose; type: functional, organism-based; set-up: dose 10 mg/kg
# [3] = Oral bioavailability in Sprague-Dawley rat at 10 mg/kg by LC-MS/MS method; type: ADME, organism-based; conditions: in vivo
# [4] = Clearance in Sprague-Dawley rat at 5 mg/kg, iv by LC-MS/MS method; type: ADME, organism-based; set-up: dose 5 mg/kg, route intravenous; conditions: in vivo
# [5] = Half life in Sprague-Dawley rat at 5 mg/kg, iv by LC-MS/MS method; type: ADME, organism-based; set-up: dose 5 mg/kg, route intravenous; conditions: in vivo
# [6] = Tmax in Sprague-Dawley rat at 10 mg/kg, po by LC-MS/MS method; type: ADME, organism-based; set-up: dose 10 mg/kg, route oral; conditions: in vivo
# [7] = Volume of distribution in Sprague-Dawley rat at 5 mg/kg, iv by LC-MS/MS method; type: ADME, organism-based; set-up: dose 5 mg/kg, route intravenous; conditions: in vivo
# [8] = Cmax in Sprague-Dawley rat at 10 mg/kg, po by LC-MS/MS method; type: ADME, organism-based; set-up: dose 10 mg/kg, route oral; conditions: in vivo
# [9] = MRT (0 to 10 hrs) in Sprague-Dawley rat at 10 mg/kg, po by LC-MS/MS method; type: ADME, organism-based; set-up: dose 10 mg/kg, route oral; conditions: in vivo
# [10] = AUC (0 to 10 hrs) in Sprague-Dawley rat at 5 mg/kg, iv by LC-MS/MS method; type: ADME, organism-based; set-up: time < 10 hr, dose 5 mg/kg, route intravenous; conditions: plasma
# [11] = Half life in Sprague-Dawley rat at 10 mg/kg, po by LC-MS/MS method; type: ADME, organism-based; set-up: dose 10 mg/kg, route oral; conditions: in vivo
# [12] = AUC (0 to 10 hrs) in Sprague-Dawley rat at 10 mg/kg, po by LC-MS/MS method; type: ADME, organism-based; set-up: time < 10 hr, dose 10 mg/kg, route oral; conditions: plasma
# [13] = MRT (0 to 10 hrs) in Sprague-Dawley rat at 5 mg/kg, iv by LC-MS/MS method; type: ADME, organism-based; set-up: dose 5 mg/kg, route intravenous; conditions: in vivo
# Sequence of High affinity 3',5'-cyclic-AMP phosphodiesterase 7A (Q13946 whole entry): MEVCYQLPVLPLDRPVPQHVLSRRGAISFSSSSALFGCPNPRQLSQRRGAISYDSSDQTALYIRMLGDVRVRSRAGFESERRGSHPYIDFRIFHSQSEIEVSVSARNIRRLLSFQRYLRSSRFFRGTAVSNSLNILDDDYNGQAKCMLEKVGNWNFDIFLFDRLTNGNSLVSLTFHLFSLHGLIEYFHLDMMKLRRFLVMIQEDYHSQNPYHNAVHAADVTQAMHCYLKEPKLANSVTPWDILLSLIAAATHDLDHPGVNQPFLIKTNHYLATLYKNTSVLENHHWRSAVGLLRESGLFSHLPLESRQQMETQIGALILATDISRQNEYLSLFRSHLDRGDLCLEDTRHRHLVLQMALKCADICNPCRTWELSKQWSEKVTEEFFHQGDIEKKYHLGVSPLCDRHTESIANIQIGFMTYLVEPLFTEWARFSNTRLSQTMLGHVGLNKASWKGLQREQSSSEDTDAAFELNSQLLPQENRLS
SMILES,IC50 [1],IC50 [2],Activity (Rattus norvegicus),bioavailability [3],clearance [4],half-life [5],Tmax [6],Vd [7],Cmax [8],MRT last [9],AUC(0-t) at 10 h [10],half-life [11],AUC(0-t) at 10 h [12],MRT last [13]
CCCc1nn(C)c2c(=O)[nH]c(-c3cc(S(=O)(=O)N4CCN(C)CC4)ccc3OCC)nc12,4.69 µM,> 10 µM,Active,23%,,,,,,,,,,
CCCOc1ccc(S(=O)(=O)N2CCN(C)CC2)cc1-c1nc(CC)c(CC)c(=O)[nH]1,,,Active,10%,19.5 mL/min/kg,1.29 h,0.25 h,2.07 L/kg,468 ng/mL,3.09 h,4470 ng·h/mL,3.94 h,895 ng·h/mL,0.81 h
